Results: US20260132123A1, “ABAD INHIBITOR COMPOUNDS” (UNIVERSITY COURT OF THE UNIVERSITY OF ST ANDREWS, priority 2021, published 2026)

Target: T1, 17β-HSD10 (Homo sapiens, UniProt Q99714)
T1 construct: Histev (histidine tag with TEV site) (N, cleaved yes); made in house; host or cells: E. coli BL21-CodonPlus
T1 sequence (Q99714 1-261): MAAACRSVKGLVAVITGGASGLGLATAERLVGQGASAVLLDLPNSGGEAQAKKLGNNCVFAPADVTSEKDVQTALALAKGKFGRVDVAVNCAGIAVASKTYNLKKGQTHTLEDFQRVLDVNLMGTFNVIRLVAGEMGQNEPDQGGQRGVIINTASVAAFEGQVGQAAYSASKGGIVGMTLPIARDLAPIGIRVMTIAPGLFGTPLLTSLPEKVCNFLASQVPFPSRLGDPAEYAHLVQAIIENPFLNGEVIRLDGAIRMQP
Experiment: 17β-HSD10 (ABAD) enzyme inhibition assay, NADH oxidation read at 340 nm (primary screen and dose response)
Type: biochemical
Settings: for EC50 / Max. Effect (%) / Hill Slope / Max. Fit / Min. Fit: recombinant 17βHSD10 enzyme assay; for Hill Slope / Max. Fit / Min. Fit: curve fit
Description: Cell pellets of E. coli BL21-CodonPlus cells containing Histev-17β-HSD10 protein were re-suspended for 30 min, 4° C., in lysis buffer (20 mM NaH2PO4, 30 mM imidazole, 500 mM NaCl, 10% (v/v) glycerol, pH 7.5) with the addition of complete ethylenediaminetetraacetic acid (EDTA)-free protease inhibitor tablets (Roche), lysozyme (1 mg/mL), deoxyribonuclease (DNase) (20 μg/mL) and Triton X-100 (0.1% (v/v)). Cells were lysed by passage through a cell disruptor at 30 kPSI (Constant Systems Ltd) and the lysate was cleared by centrifugation (Sorvall Evolution RC, rotor S5-34 55-34 angle, 20500 rpm, 30 min, 4° C.). Cleared lysate was filtered (0.45 μm membrane; Whatman) then applied to a Ni-nitrilotriacetic acid (NTA) (GE Healthcare) column pre-washed with lysis buffer and protein eluted with 300 mM imidazole buffer (20 mM NaH2PO4, 300 mM imidazole, 500 mM NaCl, 10% (v/v) glycerol, pH 7.5). […] Protein digestion and dialysis was carried out at 4° C. for 16 h.
Complete digestion was firstly checked by sodium dodecyl sulfate-polyacrylamide gel electrophoresis (SDS-PAGE), then fully digested protein was passed over a second Ni-column and the flow-through, containing 17β-HSD10 protein, was concentrated using a Vivaspin column (10 kDa MWCO, GE Healthcare) to ˜7 mL before final purification using gel filtration to remove imidazole (Hi-Load 16/60 Superdex 75 prep grade column, GE Healthcare, flow rate 1.5 mL/min). Protein was eluted in gel filtration buffer (10 mM trisaminomethane (Tris-HCl), 150 mM NaCl, 10% glycerol, pH 7.5) and concentrated (Vivaspin column (10 kDa molecular weight cut off (MWCO), GE Healthcare)) to 10 mg/mL. Aliquots (10 μL) were taken and flash frozen in liquid nitrogen before final storage at −80° C.
The assay buffer used contains: 10 mM Tris. HCl (pH 7.4), 150 mM NaCl, 1 mM DTT, 0.005% Tween (polysorbate 20) and 0.01% bovine serum albumin (BSA). As indicated for some experiments the assay buffer was supplemented with 100 units/ml bovine liver catalase. All experiments were conducted in clear bottom 384-well or 1536-well low volume microplates (Corning) with a final assay volume of 20 μL and the reaction progress was monitored by oxidation of NADH as determined by reduction in absorbance at 340 nm read on the EnVision plate reader (PerkinElmer).
For primary screening an endpoint assay format was adopted in which an Echo acoustic liquid dispenser (Labcyte) was used to transfer 20 nL of either reference standard, dimethylsulfoxide (DMSO) control ([…] final assay concentration (FAC)) or test compounds (10 μM FAC) to the assay plate. 10 μL of 17β-HSD10 enzyme in assay buffer (2.5 nM, FAC) was then added to the plates using the Preddator liquid handling robot (Redd and Whyte) and plates were incubated at room temperature for 15 minutes. 10 μL of substrate mixture (100 μM acetoacetyl-CoA and 100 μM NADH, FAC) was added with the Preddator. To start the reaction and the plates were left to incubate for 35 minutes at room temperature before the absorbance at 340 nm was read on the EnVision plate reader (PerkinElmer). For kinetic assay format and dose response follow up experiments the same protocol was adopted but the absorbance at 340 nm was monitored constantly for 45 minutes from immediately after the reaction was started.

EC50 [nM]	Max. Effect (%)	Hill Slope	Max. Fit	Min. Fit	17β-HSD10 / ABAD activity in words (SAR discussion)	Compound	ABAD plC50 (primary screening, resynthesized HTS hit compounds)
	11					Cc1ccsc1C(=O)N1CCC[C@H]1c1ccccc1-c1cccc(C(F)(F)F)c1 (racemic) [ESC1002789]	
	93	1.2	93	−1		Cc1ccsc1C(=O)N1CCC[C@H]1c1ccccc1-c1cccc(C(F)(F)F)c1 (racemic) [ESC1002790]	
> 20000						Cc1ccsc1C(=O)N1CCC[C@H]1c1ccccc1-c1cccc(C(F)(F)F)c1 (single isomer, unassigned) [ESC1002789]	
661						Cc1ccsc1C(=O)N1CCC[C@H]1c1ccccc1-c1cccc(C(F)(F)F)c1 (single isomer, unassigned) [ESC1002790]	
> 20000	18					O=C(c1[nH]ncc1Cl)N1CCC[C@H]1c1ccccc1-c1cccc(O)c1 (single isomer, unassigned) [ESC1002798]	
> 20000	10					O=C(c1sccc1Cl)N1CCC[C@H]1c1ccccc1-c1cc(O)cc(F)c1 (single isomer, unassigned) [ESC1002800]	
51.3	100	1.2	96	−1		O=C(c1sccc1Cl)N1CCC[C@H]1c1ccccc1-c1cc(O)cc(F)c1 (single isomer, unassigned) [ESC1002801]	
51.3	99	1.2	97	0		O=C(c1sccc1Cl)N1CCC[C@H]1c1ccccc1-c1ccc(F)c(O)c1 (single isomer, unassigned) [ESC1002838]	
4170	85	1.1	96	−4		O=C(c1sccc1Cl)N1CCC[C@H]1c1ccccc1-c1ccc(F)c(O)c1 (single isomer, unassigned) [ESC1002839]	
170	98	1.1	97	−4		O=C(c1sccc1Cl)N1CCC[C@H]1c1ccccc1-c1cccc(O)c1F (single isomer, unassigned) [ESC1002840]	
> 20000	27					O=C(c1sccc1Cl)N1CCC[C@H]1c1ccccc1-c1cccc(O)c1F (single isomer, unassigned) [ESC1002841]	
10700	70	1.1	100	−1		O=C(c1sccc1Cl)N1CCC[C@H]1c1ccccc1-c1cc(O)ccc1F (single isomer, unassigned) [ESC1002843]	

The next lines start with the compound.

Compound	EC50 [nM]	Max. Effect (%)	Hill Slope	Max. Fit	Min. Fit	17β-HSD10 / ABAD activity in words (SAR discussion)	ABAD plC50 (primary screening, resynthesized HTS hit compounds)
O=C(c1sccc1Cl)N1CCC[C@H]1c1ccccc1-c1cncnc1 (racemic) [ESC1002698]	7410	59	1.1	71	1		
COc1cc(-c2ccccc2[C@@H]2CCCN2C(=O)c2sccc2Cl)ccc1F (racemic) [ESC1002699]	263	97	1.2	96	5		
COc1cc(-c2ccccc2[C@@H]2CCCN2C(=O)c2sccc2Cl)ccc1C (racemic) [ESC1002700]	398	93	1.4	92	−2		
O=C(c1sccc1Cl)N1CCC[C@H]1c1ccccc1-c1ccc2[nH]ncc2c1 (racemic) [ESC1002701]	288	99	1.2	96	0		
O=C(c1sccc1Cl)N1CCC[C@H]1c1ccccc1-c1cccc2[nH]ncc12 (racemic) [ESC1002702]	1260	91	0.91	98	−9	less active	
Cn1cc(-c2ccccc2[C@@H]2CCCN2C(=O)c2sccc2Cl)cn1 (racemic) [ESC1002704]	1070	98	1	103	−10		
O=C(c1sccc1Cl)N1CCC[C@H]1c1ccccc1-c1ccc(F)c(O)c1 (racemic) [ESC1002775]	49	100	1.2	96	0		
O=C(c1sccc1Cl)N1CCC[C@H]1c1ccccc1-c1cc(O)cc(F)c1 (racemic) [ESC1002776]	40.7	99	1	96	−1		
COc1cccc(-c2ccccc2[C@H]2CCCN2C(=O)c2sccc2C)c1 (single isomer, unassigned) [ESC1002420]	> 20000	28					
COc1cccc(-c2ccccc2[C@@H]2CCCN2C(=O)c2sccc2C)c1 (single isomer, unassigned) [ESC1002421]	186	97	1.6	95	11		
O=C(c1sccc1Cl)N1CCC[C@H]1c1ccccc1-c1cccc(O)c1 (single isomer, unassigned) [ESC1002754]	> 20000	20					
COc1cccc(-c2ccccc2[C@@H]2CCCN2C(=O)c2[nH]ncc2Cl)c1 (single isomer, unassigned) [ESC1002756]	> 20000	24					
Cc1ccsc1C(=O)N1CCC[C@H]1c1ccccc1-c1ccccc1Cl (single isomer, unassigned) [ESC1002766]	> 20000	14					
Cc1ccsc1C(=O)N1CCC[C@H]1c1ccccc1-c1ccccc1Cl (single isomer, unassigned) [ESC1002767]	155	96	0.98	96	−2		
Cc1ccsc1C(=O)N1CCC[C@H]1c1ccccc1-c1cccc(Cl)c1 (single isomer, unassigned) [ESC1002768]	> 20000	12					
CCCn1c(C(N)=O)cc2cc(-c3cn[nH]c3)ccc21 [ESC1002019]	3980	85	1.3	93	2		
COc1ccc(-c2ccc(-c3cn[nH]c3)s2)c(OC)c1OC [ESC1002024, 4-[5-(2,3,4-trimethoxyphenyl)-2-thienyl]-1H-pyrazole]	3980	89	1.2	101	2		
CC(C)CN(CC(C)C)c1cccc(N(C)Cc2cnc[nH]2)c1 [ESC1002025]	> 20000	15					
Cc1ccc(C(=O)N(CC(C)C)c2cccc(N(C)Cc3cnc[nH]3)c2)cc1 [ESC1002032, N-[3-[1H-imidazol-5-ylmethyl(methyl)amino]phenyl]-N-isobutyl-4-methyl-benzamide]	251	99	0.9	99	0		6.6
